Assays:
[1] = biological target: T1, native Aβ aggregates in human AD brain tissue sections (Homo sapiens, UniProt P05067); assay: Aβ in vitro displacement assay (selectivity counterscreen, [3H]Example 3 autoradiography); type: binding; settings: 3 nM [3H]Example 3, human AD brain sections; for inhibition at 1 µM: 1 μM compound, read-out: sel. counterscreen PCT_INHIB AD @ 1 μM (% displacement of [3H]Example 3)
T1 construct: native Aβ aggregates in human AD brain tissue samples; from tissue; host or cells: human AD brain tissue sections
T1 sequence (P05067 672-713 limits assumed): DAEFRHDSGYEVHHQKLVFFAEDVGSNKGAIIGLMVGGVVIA

[2] = biological target: T2, native aSyn aggregates in A30P transgenic mouse brain sections (Homo sapiens, UniProt P37840, A30P); assay: aSyn in vitro displacement assay ([3H]Example-3 autoradiography); type: binding, mutant human aSyn gene); settings: 3 nM [3H]Example-3, A30P transgenic mouse brain sections; for inhibition at 1 µM: 1 μM compound, read-out: PCT_INHIB A30P @ 1 μM (% displacement of [3H]Example-3)
T2 construct: from tissue; host or cells: brain sections (midbrain and pons as ROI) of A30P transgenic mice, line B6.D2-Tg(Thy1-SNCA*30P)31Pjk

Row | SMILES | inhibition at 1 µM [1] [%] | inhibition at 1 µM [2] [%] | inhibition at 3 µM ([1]; 3 μM compound, read-out: sel. counterscreen PCT_INHIB AD @ 3 μM) [%] | inhibition at 3 µM ([2]; 3 μM compound, read-out: PCT_INHIB A30P @ 3 μM) [%]
1 | Cc1ccc(C(=O)Nc2ccc(N3CCN(c4nccs4)CC3)cc2)c(F)c1 [Example 21, 2-Fluoro-4-methyl-N-[4-[4-(1,3-thiazol-2-yl)piperazin-1-yl]phenyl]benzamide] | 91 | 85 | – | –
2 | COc1ccc(C(=O)Nc2ccc(N3CCN(c4ccc(C#N)cc4)CC3)cc2)nc1 [Example 166, N-(4-(4-(4-Cyanophenyl)piperazin-1-yl)phenyl)-5-methoxypicolinamide] | 70 | 81 | – | –
3 | COc1ccc(C(=O)Nc2cnc(N3CCN(c4ccccn4)CC3)cn2)cc1 [Example 85, 4-Methoxy-N-(5-(4-(pyridin-2-yl)piperazin-1-yl)pyrazin-2-yl)benzamide] | 107 | 98 | – | –
4 | O=C(Nc1ccc(N2CCN(c3ccccn3)CC2)cc1)c1ccc2c(c1)OCO2 [Example 15, N-(4-(4-(Pyridin-2-yl)piperazin-1-yl)phenyl)benzo[d][1,3]dioxole-5-carboxamide] | 98 | 94 | – | –
5 | COc1ccc(C(=O)Nc2ccc(N3CCN(c4ccccn4)CC3)c(F)c2)cc1 [Example 106, N-[3-Fluoro-4-[4-(2-pyridyl)piperazin-1-yl]phenyl]-4-methoxy-benzamide] | 88 | 82 | – | –
6 | COc1ccc(C(=O)Nc2ccc(N3CCN(c4ccc(C#N)c(C)c4)CC3)cc2)cc1 [Example 153, N-(4-(4-(4-Cyano-3-methylphenyl)piperazin-1-yl)phenyl)-4-methoxybenzamide] | 87 | 92 | – | –
7 | COc1ccc(C(=O)Nc2ccc(N3CCN(c4ccc(N(C)C)cn4)CC3)cc2)cc1 [Example 142, N-(4-(4-(5-(Dimethylamino)pyridin-2-yl)piperazin-1-yl)phenyl)-4-methoxybenzamide] | 91 | 91 | – | –
8 | N#Cc1ccc(N2CCN(c3ccc(NC(=O)c4ccc(OCCOCCF)cc4)cc3)CC2)nc1 [Example 121, N-(4-(4-(5-cyanopyridin-2-yl)piperazin-1-yl)phenyl)-4-(2-(2-fluoroethoxy)ethoxy)benzamide] | 86 | 87 | – | –
9 | COc1ccc(C(=O)Nc2ccc(N3CCN(c4cccc(F)n4)CC3)cc2)cc1 [Example 146, N-(4-(4-(6-Fluoropyridin-2-yl)piperazin-1-yl)phenyl)-4-methoxybenzamide] | 91 | 95 | – | –
10 | COc1ccc(C(=O)Nc2ccc(N3CCN(c4ccccc4OC)CC3)cc2)cc1 [Example 69, 4-Methoxy-N-{4-[4-(2-methoxyphenyl)piperazin-1-yl]phenyl}benzamide] | 86 | 89 | – | –
11 | N#Cc1ccc(N2CCN(c3ccc(NC(=O)c4ccc(OCCF)cc4)cc3)CC2)nc1 [Example 116, N-[4-[4-(5-Cyano-2-pyridyl)piperazin-1-yl]phenyl]-4-(2-fluoroethoxy)benzamide] | 85 | 81 | – | –
12 | C#Cc1ccc(N2CCN(c3ccc(NC(=O)c4ccc(OC)cc4)cc3)CC2)nc1 [Example 176, N-[4-[4-(5-Ethynyl-2-pyridyl)piperazin-1-yl]phenyl]-4-methoxy-benzamide] | – | – | 97 | 102
13 | Cc1ccc(C(=O)Nc2ccc(N3CCN(c4ccccn4)CC3)cn2)nc1 [Example 53, 5-Methyl-N-(5-(4-(pyridin-2-yl)piperazin-1-yl)pyridin-2-yl)picolinamide] | 86 | 82 | – | –
14 | COc1ccc(C(=O)Nc2cnc(N3CCN(c4ccccn4)CC3)nc2)nc1 [Example 79, 5-Methoxy-N-(2-(4-(pyridin-2-yl)piperazin-1-yl)pyrimidin-5-yl)picolinamide] | 93 | 95 | – | –
15 | COc1ccc(C(=O)Nc2ccc(N3CCN(c4ccc(C)nc4)CC3)cc2)cc1 [Example 156, 4-Methoxy-N-(4-(4-(6-methylpyridin-3-yl)piperazin-1-yl)phenyl)benzamide] | 76 | 81 | – | –
16 | O=C(Nc1ccc(N2CCN(c3ccccn3)CC2)cc1)c1ccccc1F [Example 9, 2-Fluoro-N-(4-(4-(pyridin-2-yl)piperazin-1-yl)phenyl)benzamide] | 96 | 82 | – | –
17 | Cc1cccc(C(=O)Nc2cnc(N3CCN(c4ccccn4)CC3)nc2)c1 [Example 64, 3-Methyl-N-(2-(4-(pyridin-2-yl)piperazin-1-yl)pyrimidin-5-yl)benzamide] | 92 | 88 | – | –
18 | COc1ccc(C(=O)Nc2ccc(N3CCN(c4ccc(C#N)cc4)CC3)cc2)cn1 [Example 157, N-(4-(4-(4-Cyanophenyl)piperazin-1-yl)phenyl)-6-methoxynicotinamide] | 92 | 91 | – | –
19 | COc1ccc(C(=O)Nc2ccc(N3CCN(c4ccc(OC)cc4)CC3)cc2)cc1 [Example 110, 4-Methoxy-N-[4-[4-(4-methoxyphenyl)piperazin-1-yl]phenyl]benzamide] | 99 | 99 | – | –
20 | COc1ccc(C(=O)Nc2ccc(N3CCN(c4ccc(F)cc4)CC3)cc2)cc1 [Example 105, N-[4-[4-(4-Fluorophenyl)piperazin-1-yl]phenyl]-4-methoxy-benzamide] | 98 | 100 | – | –
21 | COc1ccc(C(=O)Nc2ccc(N3CCN(c4ccc(C#N)cn4)CC3)cc2)cc1 [Example 50, N-(4-(4-(5-Cyanopyridin-2-yl)piperazin-1-yl)phenyl)-4-methoxybenzamide] | 86 | 97 | – | –
22 | N#Cc1ccc(N2CCN(c3ccc(NC(=O)c4ccc(OCCF)cc4)cc3)CC2)cc1 [Example 117, N-[4-[4-(4-Cyanophenyl)piperazin-1-yl]phenyl]-4-(2-fluoroethoxy)benzamide] | 88 | 90 | – | –
23 | Cc1ccc(C(=O)Nc2ccc(N3CCN(c4cccnc4)CC3)cc2)cc1 [Example 37, 4-Methyl-N-(4-(4-(pyridin-3-yl)piperazin-1-yl)phenyl)benzamide] | 97 | 94 | – | –
24 | COc1ccc(C(=O)Nc2ccc(N3CCN(c4ccc(OC)nc4)CC3)cc2)cc1 [Example 58, 4-Methoxy-N-[4-[4-(6-methoxypyridin-3-yl)piperazin-1-yl]phenyl]benzamide] | 92 | 93 | – | –
25 | COc1ccc(C(=O)Nc2ccc(N3CCN(c4cccnc4)CC3)cc2)nc1 [Example 77, 5-Methoxy-N-(4-(4-(pyridin-3-yl)piperazin-1-yl)phenyl)picolinamide] | 96 | 98 | – | –
26 | COc1ccc(C(=O)Nc2ccc(N3CCN(c4ccc(C#N)cn4)CC3)cc2)c(F)c1 [Example 115, N-[4-[4-(5-Cyano-2-pyridyl)piperazin-1-yl]phenyl]-2-fluoro-4-methoxy-benzamide] | 90 | 87 | – | –
27 | COc1ccc(C(=O)Nc2ccc(N3CCN(c4cccnc4)CC3)cc2)cc1 [Example 38, 4-Methoxy-N-(4-(4-(pyridin-3-yl)piperazin-1-yl)phenyl)benzamide] | 93 | 96 | – | –
28 | COc1ccc(C(=O)Nc2ccc(N3CCN(c4ccccn4)CC3)cc2)c(F)c1 [Example 1, 2-Fluoro-4-methoxy-N-(4-(4-(pyridin-2-yl)piperazin-1-yl)phenyl)benzamide] | 95 | 100 | – | –

— US11541132B2, “Radiolabeled compounds” (Hoffmann-La Roche Inc., priority 2017, dated 2023)
